According to US7470715B2, “Estrogen modulators” (Pfizer Inc., priority 2005, dated 2008):

Tests used:
[1] = biological target: T1, ligand binding domain of the estrogen receptor alpha chain (ERαLBD) (Homo sapiens, UniProt P03372); assay: ER agonist cell assay (ERα), Huh-7 co-transfection, luciferase; type: cell-based; conditions: for EC50: Huh-7 cells co-transfected with pG5luc and ERαLBD, overnight incubation, luciferase; for ERα % of Max E2 Response: percent of the maximum estradiol fold change, Huh-7, pG5luc and ERαLBD
T1 construct: expressed in transfected cells; host or cells: Huh-7 human hepatoma cells, transient transfection with FuGENE 6
T1 sequence (P03372 311-547 limits assumed): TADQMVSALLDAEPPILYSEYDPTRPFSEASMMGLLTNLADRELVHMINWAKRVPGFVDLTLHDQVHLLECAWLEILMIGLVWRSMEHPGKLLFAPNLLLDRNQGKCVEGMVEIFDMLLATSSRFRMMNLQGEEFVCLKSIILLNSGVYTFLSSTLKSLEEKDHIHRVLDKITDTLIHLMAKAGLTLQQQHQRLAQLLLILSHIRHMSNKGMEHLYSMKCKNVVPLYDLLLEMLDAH
Method: (§1) The compounds ability to mimic the effects of estrogen on the estrogen receptor were determined in a whole cell assay as described immediately below.
(§2) Experimental Procedure for ER Agonist Cell Assay
(§3) • Cell line and plasmids: The human hepatoma cell line Huh-7 was used for co-transfections. Cells were maintained in culture medium and split when they reached 80-90% confluency. Three plasmids were routinely used in the assay. pG5luc contained the firefly luciferase gene and was obtained from Promega. […] Cell Culture Media and Reagents:
(§4) Culture medium: DMEM (phenol red free), 10% charcoal treated HyClone serum, 1% L-glutamine, and 1% penicillin/streptomycin
(§5) Transfection medium: DMEM (phenol red free) and 10% charcoal treated HyClone serum
(§6) Luciferase reagents: Dual-Glo Luciferase Kit (Promega cat #E2980) was used for determination of luciferase activity.
(§7) Transient transfections were preformed using the lipophilic reagent FuGENE 6 (Roche). Cells were split and seeded at 7.2×10^6/150 cm^2 flask in 20 mL of transfection medium. 5-6 hrs later cells were co-transfected with either pG5luc and ERαLBD or pG5luc and ERβLBD(pm418). Transfected cells grew overnight and were then used the next day.
(§8) Cells transfected 24 hrs earlier were harvested, counted, and seeded in wells containing compound at a density of 1×10^4 cells/well. […] Cells were incubated overnight at 37° C. and 5% CO2 in the presence of compound. The following day medium was aspirated from the wells and 100 ul of Dual-Glo™ Luciferase Reagent were added to each well. Plates were incubated at room temperature for 20 minutes and firefly luminescence was measured on a luminometer. Next, 50 ul of Dual-Gbo™ Stop & Glo® Reagent were added to each well and after 20 minutes at room temperature the Renilla luminescence was measured on a luminometer. Values from each well were normalized by dividing the firefly luminescence by the Renilla luminescence. Estradiol was used as the standard and run in each assay. The fold induction over background for each compound was compared to the maximum fold induction for estradiol in each assay. […] Those compounds that were not tested, or the data was unavailable are marked as NT.

[2] = biological target: ligand binding domain of the estrogen receptor beta chain (ERβLBD) that contained a point mutation at amino acid residue 418 (pm418) (Homo sapiens, UniProt Q92731); assay: ER agonist cell assay (ERβ), Huh-7 co-transfection, luciferase; type: cell-based; conditions: for EC50: Huh-7 cells co-transfected with pG5luc and ERβLBD(pm418), overnight incubation, luciferase; for ERβ % of Max E2 Response: percent of the maximum estradiol fold change, Huh-7, pG5luc and ERβLBD(pm418)
Method: as §1, §2, §3, §4, §5, §6, §7, §8

[3] = tested on: hairless female SKH, 1-hr mice; assay: Animal model for reversal of wrinkles: skin thickness model, topical dosing, skin thickness and hyaluronic acid; type: in vivo, mouse; conditions: 3% topical, QD, three days
Description: Animal Model for Reversal of Wrinkles
Uzuka et al. describes an increase in mouse back skin water content, hyaluronic acid (HA) content, and hyaluronic acid synthetase activity following topical application or subcutaneous injection of estradiol (Biochimica et Biophysica Acta, 627, 199-206, 1980; Biochimica et Biophysica Acta 673, 387-393, 1981). […] Thus, this model may be used to as a preliminary screen to assess the potential for estrogen modulators to alleviate wrinkles in human skin.
The skin thickness model uses hairless female SKH, 1-hr mice. Mice aged to approximately 11 weeks are introduced into the laboratory environment and acclimated for at least 1 week prior to use in the study may be used. Each group typically consisted of 7 animals that may be run in parallel with vehicle and the positive control estradiol. Based on binding and/or cellular assay data, compounds are chosen for screening in this model. Those compounds include the products of Examples, 2, 9, 15, 46, 47, 48, 51, 52, 61, 135, and 137. Prior to topical application to mouse dorsal skin, a sufficient quantity of each compound is dissolved in a solvent generally consisting of ethanol and propylene glycol (70/30% v/v) (vehicle) to achieve the final concentration specified in Table C below. Animals are dosed topically QD or BID, for three days. Each dose consisted of 100 microliters of vehicle or drug applied uniformly to the entire dorsal surface (˜18 cm^2). All animals are sacrificed approximately 18-24 hours after the final dose. Skin thickness (ST) is measured using a caliper. HA is extracted from the skin and quantitated using commercially-available enzyme-linked immunosorbent assays (ELISAs)(HA).
Data are presented as percent of the estradiol response after subtracting out the ST for vehicle-treated mouse skin. The estradiol response is set to 100% and the vehicle resoibse becines 0%.

Row | EC50 [1] [nM] | ERα % of Max E2 Response [1] [%] | EC50 [2] [µM] | ERβ % of Max E2 Response [2] [%] | Compound | HA (hyaluronic acid), percent of the estradiol response [3] [%] | ST (skin thickness), percent of the estradiol response [3] [%]
1 | 985 | 46 | 0.799 | 36.8 | OCC1(c2onc(-c3ccc(O)c(F)c3)c2-c2ccccc2)CC1 [Example 98, 2-Fluoro-4-[5-(1-hydroxymethyl-cyclopropyl)-4-phenyl-isoxazol-3-yl]-phenol] | – | –
2 | 122 | 58.3 | – | 13.6 | CC(=O)C1(c2onc(-c3ccc(O)cc3)c2-c2ccccc2)CC1 [Example 101, 1-{1-[3-(4-Hydroxy-phenyl)-4-phenyl-isoxazol-5-yl]-cyclopropyl}-ethanone] | – | –
3 | – | 10.2 | – | 1.21 | CNCC1(c2onc(-c3ccc(O)cc3)c2-c2ccccc2)CC1 [Example 103, 4-[5-(1-methylaminomethyl-cyclopropyl)-4-phenyl-isoxazol-3-yl]-phenol] | – | –
4 | 25.1 | 15 | > 10 | >0.789 | Oc1ccc(-c2noc(C3(c4nnc(-c5ccc(O)cc5O)o4)CC3)c2-c2ccccc2)cc1 [Example 118, 4-(5-{1-[3-(4-hydroxyphenyl)-4-phenylisoxazol-5-yl]cyclopropyl}-1,3,4-oxadiazol-2-yl)benzene-1,3-diol] | – | –
5 | 469 | 22.3 | > 10 | >3.74 | CCOc1ccc(-c2nnc(C3(c4onc(-c5ccc(O)cc5)c4-c4ccccc4)CC3)o2)cc1 [Example 119, 4-(5-{1-[5-(4-ethoxyphenyl)-1,3,4-oxadiazol-2-yl]cyclopropyl}-4-phenylisoxazol-3-yl)phenol] | – | –
6 | 71.5 | 21.9 | > 10 | >0.756 | Oc1ccc(-c2noc(C3(c4nnc(-c5ccccc5O)o4)CC3)c2-c2ccccc2)cc1 [Example 122, 2-(5-{1-[3-(4-hydroxyphenyl)-4-phenylisoxazol-5-yl]cyclopropyl}-1,3,4-oxadiazol-2-yl)phenol] | – | –
7 | 46.9 | 35.9 | > 10 | >0.658 | COc1cccc(-c2nnc(C3(c4onc(-c5ccc(O)cc5)c4-c4ccccc4)CC3)o2)c1 [Example 123, 4-(5-{1-[5-(3-methoxyphenyl)-1,3,4-oxadiazol-2-yl]cyclopropyl}-4-phenylisoxazol-3-yl)phenol] | – | –
8 | 152 | 24.4 | > 10 | >0.539 | Oc1ccc(-c2nnc(C3(c4onc(-c5ccc(O)cc5)c4-c4ccccc4)CC3)o2)cc1 [Example 124, 4-(5-{1-[5-(4-hydroxyphenyl)-1,3,4-oxadiazol-2-yl]cyclopropyl}-4-phenylisoxazol-3-yl)phenol] | – | –
9 | 419 | 22.1 | > 10 | >0.535 | Oc1ccc(-c2noc(C3(c4nnc(-c5cccc(O)c5)o4)CC3)c2-c2ccccc2)cc1 [Example 125, 3-(5-{1-[3-(4-hydroxyphenyl)-4-phenylisoxazol-5-yl]cyclopropyl}-1,3,4-oxadiazol-2-yl)phenol] | – | –
10 | ≥ 10000 | 19.1 | > 10 | 0.625 | COc1ccc(-c2nnc(C3(c4onc(-c5ccc(O)cc5)c4-c4ccccc4)CC3)o2)cc1 [Example 129, 4-(5-{1-[5-(4-methoxyphenyl)-1,3,4-oxadiazol-2-yl]cyclopropyl}-4-phenylisoxazol-3-yl)phenol] | – | –

Further lines, the compound ahead of its results:

Row | Compound | EC50 [1] [nM] | ERα % of Max E2 Response [1] [%] | EC50 [2] [µM] | ERβ % of Max E2 Response [2] [%] | HA (hyaluronic acid), percent of the estradiol response [3] [%] | ST (skin thickness), percent of the estradiol response [3] [%]
11 | 1-[3-(4-Hydroxy-phenyl)-4-phenyl-isoxazol-5-yl]-cyclopropanecarboxylic acid isopropyl ester [Example 61] | 75 | 21.1 | > 10 | >1.83 | 38 | 32
12 | CCCC(O)C1(c2onc(-c3ccc(O)cc3)c2-c2ccccc2)CC1 (racemic) [Example 15, (±)-4-{5-[1-(1-Hydroxy-butyl)-cyclopropyl]-4-phenyl-isoxazol-3-yl}-phenol] | 24.3 | 43.8 | 0.15 | 15.6 | 47 | 41
13 | COCCOC(=O)C1(c2onc(-c3ccc(O)cc3)c2-c2ccccc2)CC1 [Example 88, 1-[3-(4-Hydroxy-phenyl)-4-phenyl-isoxazol-5-yl]-cyclopropanecarboxylic acid 2-methoxy-ethyl ester] | 29.4 | 29.2 | > 10 | >3.41 | – | –
14 | O=C(OC1CCCC1)C1(c2onc(-c3ccc(O)cc3)c2-c2ccccc2)CC1 [Example 89, 1-[3-(4-Hydroxy-phenyl)-4-phenyl-isoxazol-5-yl]-cyclopropanecarboxylic acid cyclopentyl ester] | 30.5 | 26 | > 10 | >2.93 | – | –
15 | O=C(OCc1ccccc1)C1(c2onc(-c3ccc(O)cc3)c2-c2ccccc2)CC1 [Example 92, 1-[3-(4-Hydroxy-phenyl)-4-phenyl-isoxazol-5-yl]-cyclopropanecarboxylic acid benzyl ester] | 57.2 | 19.7 | > 10 | >1.04 | – | –
16 | CC(C)(C)COC(=O)C1(c2onc(-c3ccc(O)cc3)c2-c2ccccc2)CC1 [Example 93, 1-[3-(4-Hydroxy-phenyl)-4-phenyl-isoxazol-5-yl]-cyclopropanecarboxylic acid 2,2-dimethyl-propyl ester] | 33.8 | 20.4 | > 10 | >0.813 | – | –
17 | CCCCOC(=O)C1(c2onc(-c3ccc(O)cc3)c2-c2ccccc2)CC1 [Example 94, 1-[3-(4-Hydroxy-phenyl)-4-phenyl-isoxazol-5-yl]-cyclopropanecarboxylic acid butyl ester] | 29.3 | 24.3 | > 10 | >0.800 | – | –
18 | O=C(OCC1CCC1)C1(c2onc(-c3ccc(O)cc3)c2-c2ccccc2)CC1 [Example 95, 1-[3-(4-Hydroxy-phenyl)-4-phenyl-isoxazol-5-yl]-cyclopropanecarboxylic acid cyclobutylmethyl ester] | 13.6 | 21.5 | > 10 | >0.728 | – | –
19 | CCOC(=O)C1(c2onc(-c3ccc(O)c(F)c3)c2-c2ccccc2)CC1 [Example 97, 1-[3-(3-Fluoro-4-hydroxy-phenyl)-4-phenyl-isoxazol-5-yl]-cyclopropanecarboxylic acid ethyl ester] | – | 19.7 | – | 1.08 | – | –
